Measured values reported in US4940780A, “Basically substituted phenylacetonitriles, their preparation and drugs containing these compounds” (BASF Aktiengesellschaft, priority 1986, dated 1990).
Structures can show the parent of a compound that is named as a salt.

Columns and labels:
[1] = molecular target: T1, serotonin-S2-receptor (Rattus norvegicus, UniProt P14842); assay: Bond to the serotonin-S2-receptor: displacement of the specific ^3H-ketanserine bond in membrane preparations of cerebral cortex of the rat; format: binding; conditions: rat cerebral cortex membranes; 1 nM ^3H-ketanserine; 60 minutes, room temperature; 10^-10 to 10^-6 M test substance
T1 construct: membrane preparations of cerebral cortex of the rat; from tissue; host or cells: rat cerebral cortex, membrane preparation
T1 sequence (P14842 whole entry): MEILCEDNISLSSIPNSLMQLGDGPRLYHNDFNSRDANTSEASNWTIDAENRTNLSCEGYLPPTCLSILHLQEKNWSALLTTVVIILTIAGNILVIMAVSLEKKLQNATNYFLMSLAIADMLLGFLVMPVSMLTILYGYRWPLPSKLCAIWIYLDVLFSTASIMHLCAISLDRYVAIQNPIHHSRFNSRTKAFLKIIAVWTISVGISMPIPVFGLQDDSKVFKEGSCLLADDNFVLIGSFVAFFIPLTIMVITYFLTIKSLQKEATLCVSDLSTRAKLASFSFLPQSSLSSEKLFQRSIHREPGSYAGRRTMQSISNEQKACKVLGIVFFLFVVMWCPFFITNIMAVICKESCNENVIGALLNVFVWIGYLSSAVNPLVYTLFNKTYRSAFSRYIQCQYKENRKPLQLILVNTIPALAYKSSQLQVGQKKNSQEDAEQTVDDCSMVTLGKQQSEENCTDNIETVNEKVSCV
Method: (b) Bond to the serotonin-S2 -receptor
Displacement of the specific ^3 H-ketanserine bond in membrane preparations of cerebral cortex of the rat
(§1) Membrane homogenate was incubated for 60 minutes at room temperature with increasing concentrations (from 10^-10 to 10^-6 M) of test substance and a fixed concentration of 1 nM of radioligand ((S)-^3 H-devapamil or ^3 H-ketanserine). The bound and the free radioligand were separated by filtration over a glass fiber filter, and the amount of radioligand retained on the filter was determined by liquid scintillation measurement. 2 tests with 3 batches were carried out.
(§2) The competition constants (Ki values in nM) were calculated by nonlinear regression analysis on an IBM computer using the program Ligand from Munson and Rodbard (Analytical Biochemistry 107 (1980), 220).

[2] = molecular target: T2, calcium channel (Cavia porcellus, UniProt A0A286X7I0); assay: Bond to the calcium channel: displacement of the specific (S)-^3H-devapamil bond in membrane preparations of guinea pig skeletal muscle; format: binding; conditions: guinea pig skeletal muscle membranes; 1 nM (S)-^3H-devapamil; 60 minutes, room temperature; 10^-10 to 10^-6 M test substance
T2 construct: membrane preparations of guinea pig skeletal muscle; from tissue; host or cells: guinea pig skeletal muscle, membrane preparation
T2 sequence (A0A286X7I0 1-1867): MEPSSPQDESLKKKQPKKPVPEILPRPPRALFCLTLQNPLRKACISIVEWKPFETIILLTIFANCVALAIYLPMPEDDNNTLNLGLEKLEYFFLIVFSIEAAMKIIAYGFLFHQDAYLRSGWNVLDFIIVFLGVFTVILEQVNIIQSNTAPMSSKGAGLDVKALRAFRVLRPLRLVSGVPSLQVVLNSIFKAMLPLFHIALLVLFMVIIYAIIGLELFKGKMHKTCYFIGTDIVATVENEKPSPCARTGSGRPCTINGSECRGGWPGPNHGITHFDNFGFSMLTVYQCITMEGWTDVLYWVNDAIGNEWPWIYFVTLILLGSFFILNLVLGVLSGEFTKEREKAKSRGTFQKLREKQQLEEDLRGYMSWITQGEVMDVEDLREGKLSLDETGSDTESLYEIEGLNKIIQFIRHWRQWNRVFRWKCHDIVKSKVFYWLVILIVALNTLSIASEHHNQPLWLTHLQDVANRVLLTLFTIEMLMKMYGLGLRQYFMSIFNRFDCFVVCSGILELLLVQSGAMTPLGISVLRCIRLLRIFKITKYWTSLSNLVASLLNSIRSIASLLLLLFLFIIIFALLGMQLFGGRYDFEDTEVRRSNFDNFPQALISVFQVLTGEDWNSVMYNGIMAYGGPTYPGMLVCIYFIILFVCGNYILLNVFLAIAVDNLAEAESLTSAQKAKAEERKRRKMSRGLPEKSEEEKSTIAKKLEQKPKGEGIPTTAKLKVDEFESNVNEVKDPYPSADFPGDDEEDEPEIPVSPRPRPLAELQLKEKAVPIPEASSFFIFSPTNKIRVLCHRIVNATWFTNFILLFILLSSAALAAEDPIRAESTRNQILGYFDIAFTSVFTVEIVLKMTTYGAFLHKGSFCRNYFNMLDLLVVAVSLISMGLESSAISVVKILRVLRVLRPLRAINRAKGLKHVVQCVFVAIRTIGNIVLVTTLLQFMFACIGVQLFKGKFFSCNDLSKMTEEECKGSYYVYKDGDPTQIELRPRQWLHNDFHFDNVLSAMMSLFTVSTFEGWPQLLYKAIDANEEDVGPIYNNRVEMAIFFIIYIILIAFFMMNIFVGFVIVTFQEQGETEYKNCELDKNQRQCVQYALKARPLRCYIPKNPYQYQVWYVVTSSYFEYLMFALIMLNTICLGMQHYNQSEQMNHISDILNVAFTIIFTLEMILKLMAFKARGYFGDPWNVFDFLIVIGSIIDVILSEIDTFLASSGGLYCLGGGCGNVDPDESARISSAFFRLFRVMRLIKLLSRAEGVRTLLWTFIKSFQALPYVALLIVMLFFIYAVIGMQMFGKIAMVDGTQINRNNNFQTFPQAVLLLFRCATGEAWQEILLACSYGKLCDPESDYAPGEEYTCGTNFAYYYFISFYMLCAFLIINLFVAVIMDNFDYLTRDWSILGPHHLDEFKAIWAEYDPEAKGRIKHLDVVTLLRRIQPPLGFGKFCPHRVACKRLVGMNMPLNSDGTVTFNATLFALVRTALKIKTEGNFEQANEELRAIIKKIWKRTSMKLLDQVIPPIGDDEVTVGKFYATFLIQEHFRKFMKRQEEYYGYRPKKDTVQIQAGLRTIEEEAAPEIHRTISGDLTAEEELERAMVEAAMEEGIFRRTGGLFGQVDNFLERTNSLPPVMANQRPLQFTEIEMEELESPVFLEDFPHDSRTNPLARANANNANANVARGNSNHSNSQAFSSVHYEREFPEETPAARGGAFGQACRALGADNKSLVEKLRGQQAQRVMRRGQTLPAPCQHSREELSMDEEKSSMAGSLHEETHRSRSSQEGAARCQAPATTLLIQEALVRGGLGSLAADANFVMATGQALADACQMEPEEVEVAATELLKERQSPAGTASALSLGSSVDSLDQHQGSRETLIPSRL
Method: (a) Bond to the calcium channel Displacement of the specific (S)-^3 H-devapamil bond in membrane preparations of guinea pig skeletal muscle
as §1, §2

SMILES	Ki [1] [nM]	Ki [2] [nM]
COc1cccc(C(C#N)(CCCN(C)CCC2CCCCC2)C(C)C)c1 (stereo not drawn) [Example 1, 5-[N-methyl-N-(2-cyclohexyl)-ethyl]-amino-2-(3-methoxyphenyl)-2-isopropylvaleronitrile]	5	16.2
CCCCCCCCCCN(C)CCCC(C#N)(c1cc(OC)c(OC)c(OC)c1)C(C)C (stereo not drawn) [Example 2, 5-[N-methyl-N-(n-decyl)]-amino-2-(3,4,5-trimethoxyphenyl)-2-isopropylvaleronitrile]	21	19.1
CCCCCCCCN(C)CCCC(C#N)(c1cc(OC)c(OC)c(OC)c1)C(C)C (stereo not drawn) [Example 4, 5-[N-methyl-N-(n-octyl)]-amino-2-(3,4,5-trimethoxyphenyl)-2-isopropylvaleronitrile]	26.4	5.2
CCOc1cc(OCC)cc(C(C#N)(CCCN(C)CCC2CCCCC2)C(C)C)c1 (stereo not drawn) [Example 5, 5-[N-methyl-N-(2-cyclohexyl)-ethyl]-amino-2-(3,5-diethoxyphenyl)-2-isopropylvaleronitrile]	20	11.9
CCCCCCCCN(C)CCC[C@@](C#N)(c1cc(OC)c(OC)c(OC)c1)C(C)C [Example 6, (S)-5-[N-methyl-N-(n-octyl)]-amino-2-(3,4,5-trimethoxyphenyl)-2-isopropylvaleronitrile]	11.2	2.9
COc1cc(OC)cc(C(C#N)(CCCN(C)CCC2CCCCC2)C(C)C)c1 (stereo not drawn) [Example 10, 5-[N-methyl-N-(2-cyclohexyl)-ethyl]-amino-2-(3,5-dimethoxyphenyl)-2-isopropylvaleronitrile]	2.8	9.2
COc1cc(C(C#N)(CCCN(C)CCC2CCCCC2)C(C)C)cc(OC)c1OC (stereo not drawn) [Example 11, 5-[N-methyl-N-(2-cyclohexyl)-ethyl]-amino-2-(3,4,5-trimethoxyphenyl)-2-isopropylvaleronitrile]	10.7	5.8
COc1cc([C@](C#N)(CCCN(C)CCC2CCCCC2)C(C)C)cc(OC)c1OC [Example 13, (S)-5-[N-methyl-N-(2-cyclohexyl)-ethyl]-amino-2-(3,4,5-trimethoxyphenyl)-2-isopropylvaleronitrile hydrochloride]	3.3	3.4
CCCCC=CCCN(C)CCCC(C#N)(c1cc(OC)c(OC)c(OC)c1)C(C)C (stereo not drawn) [Example 15, 5-[N-methyl-N-(n-octen-3-yl)]-amino-2-(3,4,5-trimethoxyphenyl)-2-isopropylvaleronitrile hydrochloride]	6.8	7.5
COc1ccc(C(C#N)(CCCN(C)CCC2CCCCC2)C(C)C)c([N+](=O)[O-])c1OC (stereo not drawn) [Example 16, 5-[N-methyl-N-(2-cyclohexyl)ethyl]-amino-2-(2-nitro-3,4-dimethoxyphenyl)-2-isopropylvaleronitrile]	3.6	34.2
CC(C)C(C#N)(CCCN(C)CCC1=CCCCC1)c1ccccc1 (stereo not drawn) [Example 18, 5-(N-methyl-N-[2-(cyclohexen-1-yl)ethyl]}-amino-2-phenyl-2-isopropylvaleronitrile]	4	36.7
CCCCCCN(C)CCCC(C#N)(c1cc(OC)c(OC)c(OC)c1)C(C)C (stereo not drawn) [Example 23, 5-[N-methyl-N-(n-hexyl)]-amino-2-(3,4,5-trimethoxyphenyl)-2-isopropylvaleronitrile hydrochloride]	48.4	11.6
CCCCCCN(C)CCC[C@@](C#N)(c1cc(OC)c(OC)c(OC)c1)C(C)C [Example 24, (S)-5-[N-methyl-N-(n-hexyl)]-amino-2-(3,4,5-trimethoxyphenyl)-2-isopropylvaleronitrile hydrochloride]	21.1	8.6
COc1ccc(CCN(C)CCCC(C#N)(c2ccc(OC)c(OC)c2)C(C)C)cc1OC (stereo not drawn) [Verapamil, verapamil, reference compound]	177	
